Experimental data as given in patent publication US5547944A, “Dermatan sulphate possessing a thrombolytic activity, and pharmaceutical forms containing it” (Opocrin S.p.A., priority 1991, dated 1996).

Key:
[1] = test system: thrombus formations in the occluded vena cava; experiment: thrombolytic activity on already formed vena cava thrombus versus urokinase; assay type: in vivo, rat
Description: DS administered intravenously is active at a dose of 0.1 mg/kg in inhibiting 90% of a Jugular vein thrombosis induced by Protein Complex Concentrate (PCC) in the rabbit, and in inhibiting 70% of a thrombosis induced by a PCC/RVV (Russel Viper Venom) combination; (Fareed J. et al.; Sem. Thromb. Haemost. 11, 155-157 (1985)).
With dermatan sulphate fractions similar to the one coded 1.25M as obtained in Example 1b) comparative studies were made on thrombolytic activity versus urokinase. Four groups of 10 rats each were anaesthetised with 1 g/kg of urethane administered in endoperitoneal physiological solution by endoperitoneal route. The vena cava of the rats was subjected to ligature in line with the Reyers test (Thromb. Res. 18, 699, 1980), and two hours after the ligature 5 mg/kg/i.v. of DS and 5000 U/kg of Ukidan (Urokinase-Serono) were administered. After eight hours the thrombus formations in the occluded vein were removed.

bleeding time = conditions: in vivo

| effect on bleeding time (bleeding time) | Substance | reduction in thrombus weight ([1]; bolus then 6 hours infusion: DS 2.5 mg/kg + 1.25 mg/kg/hour, urokinase 2500 U/kg + 1250 U/kg/hour, relative to untreated controls) | mean thrombus weight ([1]; treated two hours after ligature, 5 mg/kg i.v. DS or 5000 U/kg Ukidan, thrombus removed eight hours after ligature) |
| --- | --- | --- | --- |
| – | Urokinase | 70.2% | 2.2 mg |
| very little effect | dermatan sulphate [DS] | – | – |
